MIC data for 3 molecules are collected here from DBAASP.

Converted amounts (≈) assume the structure as drawn. “And” between values parts separate entries of the source, which are not always exact repeats. Identical values can stand only once. Where only a bound is given, the exact number is not on record here.

Among the test systems are Escherichia coli 55B5; Escherichia coli UB1005; Pseudomonas aeruginosa; Salmonella typhimurium; Staphylococcus aureus; Serratia rubidaea X01; Aspergillus nidulans; Bacillus cereus; Bacillus pumilus; Bacillus subtilis; Chaetomium globosum; Enterococcus faecium; Escherichia coli Ec513; Escherichia coli K-12; Escherichia coli K88; Escherichia coli O78; Escherichia coli; Pseudomonas luteola; Serratia marcescens MA; Serratia marcescens SA.

Assay in all cases: ≥ marks a high value that may be exact or a test limit, other limits are often not marked, values filed in µg/mL are converted to µM
Assay [1] relates to Bacillus licheniformis X39.
The test system of assay [2] is Enterococcus faecalis 981.
Assay [3] deals with Escherichia coli ATCC 25922.
Assay [4] has as its system Psychrobacter faecalis X29.
The test system of assay [5] is Rhodococcus rhodochrous X15.
The subject of assay [6] is Staphylococcus aureus ATCC 25923.
Assay [7] has as its system Staphylococcus carnosus KHS.
Assay [8] concerns Acinetobacter baumannii Ab1408.
For assay [9], the system named is Acinetobacter baumannii Ab5753.
Assay [10] has as its system Acinetobacter baumannii Ab5755.
In assay [11] the test system is Acinetobacter calcoaceticus.
Assay [12] deals with Aspergillus terreus GIM 3.34.
In assay [13] the test system is Candida albicans ATCC 2002.
For assay [14], the system named is Pseudomonas aeruginosa ATCC 27853.
In assay [15] the test system is Pseudomonas aeruginosa Pa1409.
The test system of assay [16] is Pseudomonas aeruginosa Pa4216.
Assay [17] concerns Saccharibacillus kuerlensis.
Assay [18] deals with Salmonella enterica subsp. enterica serovar Choleraesuis CMCC 50020.
The test system of assay [19] is Salmonella enterica subsp. enterica serovar Enteritidis CMCC 50041.
Assay [20] concerns Salmonella enterica subsp. enterica serovar Typhi.
Assay [21] concerns Salmonella typhimurium CMCC 50013.
Assay [22] has as its system Sphingobacterium siyangense.
In assay [23] the test system is Staphylococcus aureus 08031002.
The subject of assay [24] is Staphylococcus aureus 08031013.
In assay [25] the test system is Staphylococcus aureus 08032706.
The subject of assay [26] is Staphylococcus aureus 08032712.
For assay [27], the system named is Staphylococcus aureus 08032810.
Assay [28] relates to Staphylococcus aureus 08A865.
In assay [29] the test system is Staphylococcus aureus 08A875.
Assay [30] relates to Staphylococcus aureus ATCC 2592.
Assay [31] relates to Staphylococcus aureus Sa1390.
In assay [32] the test system is Staphylococcus epidermidis ATCC 12228.

In general, MIC refers to the smallest concentration in the dilution series that meets the test's criterion for growth inhibition. For the molecule `CC[C@H](C)[C@H](NC(=O)[C@H](C)N)C(=O)N[C@@H](Cc1cnc[nH]1)C(=O)N[C@@H](CC(N)=O)C(=O)N[C@@H](CC(C)C)C(=O)N[C@@H](C)C(=O)N[C@@H](Cc1cnc[nH]1)C(=O)N[C@@H](CCCCN)C(=O)N[C@@H](CC(C)C)C(=O)N[C@@H](CC(C)C)C(=O)N[C@@H](CCCCN)C(=O)N[C@@H](CCCCN)C(=O)N[C@@H](CC(C)C)C(=O)N[C@H](C(=O)N[C@@H](CCCN=C(N)N)C(=O)N[C@@H](C)C(=O)N[C@H](C(=O)N[C@@H](CCCCN)C(=O)N[C@@H](CCCCN)C(=O)N[C@@H](CC(C)C)C(=O)N[C@@H](C)C(=O)N[C@@H](CC(N)=O)C(=O)O)C(C)C)[C@@H](C)O` [AIHNLAHKLLKKLTRAVKKLAN], the minimal inhibitory concentration (MIC) in the assay with Escherichia coli 55B5 was found to be 1.8 µM (≈ 4.47 µg/mL); in the assay on Escherichia coli UB1005, 2.1 µM (≈ 5.21 µg/mL); in the assay on Pseudomonas aeruginosa, 3 µM (≈ 7.44 µg/mL); against Salmonella typhimurium, 4.8 µM (≈ 11.9 µg/mL); against Staphylococcus aureus, 55 µM (≈ 136 µg/mL).

Turning to `CC[C@H](C)[C@H](NC(=O)[C@H](CC(C)C)NC(=O)[C@@H](NC(=O)[C@@H]1CCCN1C(=O)[C@@H](NC(=O)[C@@H](NC(=O)[C@H](CC(N)=O)NC(=O)[C@H](CO)NC(=O)[C@H](C)NC(=O)[C@@H](NC(=O)[C@H](CC(N)=O)NC(=O)[C@H](CC(C)C)NC(=O)[C@H](CC(C)C)NC(=O)[C@@H](NC(=O)[C@H](CO)NC(=O)[C@H](CC(C)C)NC(=O)[C@@H](N)Cc1ccccc1)[C@@H](C)O)C(C)C)C(C)C)C(C)C)[C@@H](C)O)C(=O)N[C@H]1CSSC[C@@H](C(=O)O)NC(=O)[C@H](CCCCN)NC(=O)[C@H](CCCCN)NC(=O)[C@H]([C@@H](C)O)NC(=O)[C@H]([C@@H](C)CC)NC(=O)[C@H](CCCCN)NC1=O` [FLSTLLNVASNVVPTLICKITKKC], the MIC is 9 µM (≈ 23.4 µg/mL) in assay [1]; not below 75 µM in [2]; 150 µM (≈ 391 µg/mL) in [3]; 4.5 µM (≈ 11.7 µg/mL) in assay [4]; 2.3 µM (≈ 5.99 µg/mL) in [5]; 9 µM (≈ 23.4 µg/mL) in the assay on Serratia rubidaea X01. The MIC in assay [6] and in [7] was 19 µM (≈ 49.5 µg/mL) each time.

As to `CC[C@H](C)[C@H](NC(=O)[C@@H](NC(=O)[C@H](CCCN=C(N)N)NC(=O)[C@@H]1CCCN1C(=O)[C@H](CCCCN)NC(=O)[C@H](CCCCN)NC(=O)[C@H](Cc1ccccc1)NC(=O)[C@H](Cc1ccccc1)NC(=O)[C@H](CCC(=O)O)NC(=O)[C@H](CCCCN)NC(=O)[C@H](C)NC(=O)[C@H](CCCN=C(N)N)NC(=O)[C@H](CCCCN)NC(=O)[C@H](CCCCN)NC(=O)[C@@H](NC(=O)[C@H](CO)NC(=O)[C@H](CCCCN)NC(=O)[C@H](CCCCN)NC(=O)[C@H](CC(C)C)NC(=O)[C@H](CCCCN)NC(=O)[C@H](CCCN=C(N)N)NC(=O)[C@H](Cc1ccccc1)NC(=O)[C@H](Cc1ccccc1)NC(=O)[C@@H](N)CCCCN)C(C)C)C(C)C)C(=O)NCC(=O)N[C@H](C(=O)N[C@@H](CO)C(=O)N[C@H](C(=O)N1CCC[C@H]1C(=O)N[C@@H](Cc1ccccc1)C(=O)O)[C@@H](C)CC)C(C)C` [KFFRKLKKSVKKRAKEFFKKPRVIGVSIPF], the MIC in assay [8] is 4.4 µM (≈ 16 µg/mL); in assay [9], 4.4 µM (≈ 16 µg/mL); in assay [10], 1.1 µM (≈ 4 µg/mL); in assay [11] it was 0.632 µM (≈ 2.3 µg/mL); against Aspergillus nidulans it was 5.14 µM (≈ 18.7 µg/mL); in [12], 5.14 µM (≈ 18.7 µg/mL). For the same molecule, the MIC is 0.33 µM (≈ 1.2 µg/mL) in the assay with Bacillus cereus; 2.58 µM (≈ 9.4 µg/mL) with Bacillus pumilus; 2.58 µM (≈ 9.4 µg/mL) in the assay with Bacillus subtilis; 1.29 µM and 0.66 µM in [13]; 10.3 µM (≈ 37.5 µg/mL) with Chaetomium globosum; not below 41.2 µM against Enterococcus faecium. Also, the minimal inhibitory concentration (MIC) in assay [3] was found to be 0.632 µM (≈ 2.3 µg/mL); in the assay with Escherichia coli Ec513, 2.2 µM (≈ 8 µg/mL); with Escherichia coli K-12 it was 0.275 µM (≈ 1 µg/mL); in the assay on Escherichia coli K88, 1.1 µM (≈ 4 µg/mL); in the assay with Escherichia coli O78 it was 4.4 µM (≈ 16 µg/mL); in the assay on Escherichia coli it was 0.323 µM (≈ 1.17 µg/mL). The MIC in [14] is 0.33 µM and > 0.165 µM; in assay [15] it was 2.2 µM (≈ 8 µg/mL); in [16] it was 1.1 µM (≈ 4 µg/mL); with Pseudomonas aeruginosa, 3.64 µM (≈ 13.3 µg/mL); against Pseudomonas luteola, 0.33 µM (≈ 1.2 µg/mL); in [17], 1.29 µM (≈ 4.7 µg/mL). In addition, the MIC was 0.55 µM (≈ 2 µg/mL) in [18]; 1.1 µM (≈ 4 µg/mL) in assay [19]; 0.33 µM (≈ 1.2 µg/mL) in assay [20]; 1.1 µM (≈ 4 µg/mL) in assay [21]; not below 110 µM against Serratia marcescens MA; not below 110 µM against Serratia marcescens SA. Moreover, the MIC amounted to 2.58 µM (≈ 9.4 µg/mL) in assay [22]; 27.5 µM (≈ 100 µg/mL) in assay [23]; 27.5 µM (≈ 100 µg/mL) in assay [24]; 27.5 µM (≈ 100 µg/mL) in assay [25]; 27.5 µM (≈ 100 µg/mL) in [26]; 27.5 µM (≈ 100 µg/mL) in assay [27]. The MIC in assay [28] is not below 110 µM; in assay [29], 20.6 µM (≈ 75 µg/mL); in assay [6], 1.1 µM (≈ 4 µg/mL); in [30], 1.29 µM and 0.66 µM; in assay [31], not below 35.2 µM; in assay [32], 2.2 µM (≈ 8 µg/mL).
